Our source for the Activity values is ChEMBL document CHEMBL5506074, “Discovery and Optimization of Tetrahydroisoquinoline Derivatives To Enhance Lysosome Biogenesis as Preclinical Candidates for the Treatment of Alzheimer's Disease” (J Med Chem, 2024).

Each structure is given as a SMILES string. The source made the active and inactive calls. The rule behind the calls is not given here.

The nature of data set [1]: Induction of TFEB nuclear translocation in human HeLa cells expressing EGFP at 10 uM measured at 3 hrs by fluorescence microscopic analysis. In kind it is functional.
A short description of data set [2]: Induction of TFEB nuclear translocation in human HeLa cells expressing EGFP at 10 uM measured at 6 hrs by fluorescence microscopic analysis. In kind it is functional.
The nature of data set [3]: Induction of TFEB nuclear translocation in human HeLa cells expressing EGFP at 30 uM measured at 3 hrs by fluorescence microscopic analysis. In kind it is functional.
Data set [4] can be described thus: Induction of TFEB nuclear translocation in human HeLa cells expressing EGFP at 30 uM measured at 6 hrs by fluorescence microscopic analysis. Type of data set: functional.
The test system of data set [5] is HeLa. Kind of data set: Cytotoxicity against human HeLa cells at 30 uM. Type of data set: toxicity, cell-based.
Data set [6] relates to HeLa. Put plainly: Induction of lysosome biogenesis in human HeLa cells assessed as increase in number of acidified lysosomes at 10 uM incubated for 24 hrs by LysiTracker red staining based flow cytometry analysis. Type of data set: functional, cell-based. (In general: A flow cytometer gives signals particle by particle.)

In the case of `CN1CCC(CN2CCc3cc4c(cc3C2CCc2c[nH]c3ccccc23)OCO4)CC1` (stereo not drawn), the Activity in data set [1] is on record as 30%; in data set [2], 40%; in data set [3], 80%; in data set [4], 81%; in data set [5], “Toxic”.

In the case of `CC(C)N1CCc2cc3c(cc2C1CCc1c[nH]c2ccccc12)OCO3` (stereo not drawn), the Activity in data set [1] was 22%; in data set [2], 33%; in data set [3], 70%; in data set [4] it was 75%. In data set [6], the result was Active.

Take `COc1cc2c(cc1O)C(CCc1c[nH]c3ccccc13)N(CC1CCOCC1)CC2` (stereo not drawn): the Activity in data set [1] is recorded as 22%; in data set [2] it was 37%; in data set [3] it was 75%; in data set [4] it was 77%; in data set [5], “Toxic”.

As to `COc1cc2c(cc1O)CCN(CC1CCOCC1)C2CCc1c[nH]c2ccccc12` (stereo not drawn), the Activity was 20% in data set [1]; 20% in data set [2]; 70% in data set [3]; 80% in data set [4]; “Toxic” in data set [5].

Turning to `c1ccc2c(CCC3c4cc5c(cc4CCN3CC3CCNCC3)OCO5)c[nH]c2c1` (stereo not drawn), the Activity is reported as 22% in data set [1]; 35% in data set [2]; 96% in data set [3]; 100% in data set [4]; “Toxic” in data set [5].

For the compound `Oc1cc2c(cc1O)C(CCc1c[nH]c3ccccc13)N(CC1CCOCC1)CC2` (stereo not drawn), the Activity in data set [1] is given as 10%; in data set [2], 10%; in data set [3] it was 28%; in data set [4] it was 60%; in data set [5], “Toxic”.

Consider `c1cnc2[nH]cc(CCC3NCCc4cc5c(cc43)OCO5)c2c1` (stereo not drawn), for which the Activity in data set [1] is on record as 30%; in data set [2], 30%; in data set [3] it was 70%; in data set [4], 70%; in data set [5] it was “Toxic”.

On to `COc1cc2c(cc1OC)C(CCc1c[nH]c3ccc(O)cc13)N(CC1CCOCC1)CC2` (stereo not drawn), for which the Activity in data set [1] is given as 25%; in data set [2], 34%; in data set [3], 85%; in data set [4] it was 88%; in data set [5], “Toxic”.

Take `NC(=O)CN1CCc2cc3c(cc2C1CCc1c[nH]c2ccccc12)OCO3` (stereo not drawn): the Activity was 5% in data set [1], 5% in data set [2], 20% in data set [3] and 20% in data set [4].

In the case of `c1ccc2c(CCC3c4cc5c(cc4CCN3Cc3ccncc3)OCO5)c[nH]c2c1` (stereo not drawn), the Activity in data set [1] was 45%; in data set [2], 50%; in data set [3] it was 80%; in data set [4], 90%.
